Experimental data reported in patent US20120053115A1, “Lantibiotic Carboxyamide Derivatives With Enhanced Antibacterial Activity” (Sentinella Pharmaceuticals, Inc., priority 2008, published 2012).

Tests used:
[1] = system: Escherichia coli (code 47); details: 0.02% albumine bovine serum, read after 24 h
Description: (§1) MICs were performed using the broth microdilution methodology following the NCCLS procedure (NCCLS Document M7-A4 Vol. 17 No. 2 January 1997) in presence of 0.02% albumine bovine serum with inocula of approximately 5×10^5 cfu/mL. The media employed included cation-adjusted Mueller-Hinton (MH) broth (Difco Laboratories, Detroit, Mich., USA) supplemented or not with 30% (v/v) bovine serum. Tests were read after 24 h incubation at 25-37° C.

[2] = system: E. faecalisVanS (code 559); details: E. faecalis VanS code 559; 0.02% albumine bovine serum; read after 24 h
Description: as §1

[3] = system: S. haemolyticus Met-S (code 1730); details: 0.02% albumine bovine serum, read after 24 h
Description: as §1

[4] = system: Staphylococcus aureus VISA (code 3798); details: S. aureus VISA code 3798; 0.02% albumine bovine serum; read after 24 h
Description: as §1

[5] = system: S. haemolyticus Met-R (code 1729); details: 0.02% albumine bovine serum, read after 24 h
Description: as §1

[6] = system: S. epidermidis ATCC12228 (code 147); details: 0.02% albumine bovine serum, read after 24 h
Description: as §1

[7] = system: E. faecalisVanA (code 560); details: E. faecalis VanA code 560; 0.02% albumine bovine serum; read after 24 h
Description: as §1

[8] = system: C. albicans ATCC 90028 (code 145); details: 0.02% albumine bovine serum, read after 24 h
Description: as §1

[9] = system: Staphylococcus aureus VISA Met-R (code 3797); details: S. aureus VISA Met-R code 3797; 0.02% albumine bovine serum; read after 24 h
Description: as §1

[10] = system: Enterococcus faecium VanS (code 568); details: E. faecium VanS code 568; 0.02% albumine bovine serum; read after 24 h
Description: as §1

[11] = system: E. faecium VanA (code 569); details: 0.02% albumine bovine serum, read after 24 h
Description: as §1

Compound	Minimal Inhibitory Concentrations [1]	Minimal Inhibitory Concentrations [2]	Minimal Inhibitory Concentrations [3]	Minimal Inhibitory Concentrations [4]	Minimal Inhibitory Concentrations [5]	Minimal Inhibitory Concentrations [6]	Minimal Inhibitory Concentrations [7]	Minimal Inhibitory Concentrations [8]	Minimal Inhibitory Concentrations [9]	Minimal Inhibitory Concentrations [10]	Minimal Inhibitory Concentrations [11]
C=C1NC(=O)[C@H](C(C)C)NC(=O)[C@H](NC(=O)/C(=C/C)NC(=O)[C@@H](N)[C@@H](C)CC)CSC[C@@H](C(=O)N[C@H]2C(=O)N3CCC[C@H]3C(=O)NCC(=O)N[C@H](C(=O)N[C@H](C(=O)N[C@@H]3CSC[C@@H]4NC(=O)CNC(=O)[C@@H](CSC[C@@H]5NC(=O)[C@H](Cc6c[nH]cn6)NC(=O)[C@@H](CSC[C@@H](C(=O)NC6CCCCC6)NC5=O)NC4=O)NC(=O)CNC(=O)CNC(=O)CNC(=O)[C@H](CCC(=O)NC4CCCCC4)NC3=O)[C@@H](C)O)CS[C@H]2C)NC(=O)[C@H](Cc2c[nH]c3ccccc23)NC1=O [Compound 1]	>128 µg/mL	1 µg/mL	4 µg/mL	2 µg/mL	32 µg/mL	2 µg/mL	1 µg/mL	64 µg/mL	4 µg/mL	2 µg/mL	2 µg/mL
C=C1NC(=O)[C@H](C(C)C)NC(=O)[C@H](NC(=O)/C(=C/C)NC(=O)[C@@H](N)[C@@H](C)CC)CSC[C@@H](C(=O)N[C@H]2C(=O)N3CCC[C@H]3C(=O)NCC(=O)N[C@H](C(=O)N[C@H](C(=O)N[C@@H]3CSC[C@@H]4NC(=O)CNC(=O)[C@@H](CSC[C@@H]5NC(=O)[C@H](Cc6c[nH]cn6)NC(=O)[C@@H](CSC[C@@H](C(=O)N(C)C)NC5=O)NC4=O)NC(=O)CNC(=O)CNC(=O)CNC(=O)[C@H](CCC(=O)N(C)C)NC3=O)[C@@H](C)O)CS[C@H]2C)NC(=O)[C@H](Cc2c[nH]c3ccccc23)NC1=O [Compound 2]	>128 µg/mL	16 µg/mL	8 µg/mL	4 µg/mL	32 µg/mL	8 µg/mL	16 µg/mL	64 µg/mL	16 µg/mL	16 µg/mL	16 µg/mL
C=CCNC(=O)CC[C@@H]1NC(=O)[C@H](NC(=O)[C@@H](NC(=O)[C@@H]2CS[C@@H](C)[C@@H](NC(=O)[C@@H]3CSC[C@@H](NC(=O)/C(=C/C)NC(=O)[C@@H](N)[C@@H](C)CC)C(=O)N[C@@H](C(C)C)C(=O)NC(=C)C(=O)N[C@@H](Cc4c[nH]c5ccccc45)C(=O)N3)C(=O)N3CCC[C@H]3C(=O)NCC(=O)N2)[C@@H](C)O)CSC[C@@H]2NC(=O)CNC(=O)[C@@H](CSC[C@@H]3NC(=O)[C@H](Cc4c[nH]cn4)NC(=O)[C@@H](CSC[C@@H](C(=O)NCC=C)NC3=O)NC2=O)NC(=O)CNC(=O)CNC(=O)CNC1=O [Compound 5]	>128 µg/mL	8 µg/mL	4 µg/mL	2 µg/mL	32 µg/mL	4 µg/mL	8 µg/mL	32 µg/mL	8 µg/mL	8 µg/mL	8 µg/mL
C=C1NC(=O)[C@H](C(C)C)NC(=O)[C@H](NC(=O)/C(=C/C)NC(=O)[C@@H](N)[C@@H](C)CC)CSC[C@@H](C(=O)N[C@H]2C(=O)N3CCC[C@H]3C(=O)NCC(=O)N[C@H](C(=O)N[C@H](C(=O)N[C@@H]3CSC[C@@H]4NC(=O)CNC(=O)[C@@H](CSC[C@@H]5NC(=O)[C@H](Cc6c[nH]cn6)NC(=O)[C@@H](CSC[C@@H](C(=O)NCc6cccc(OC)c6)NC5=O)NC4=O)NC(=O)CNC(=O)CNC(=O)CNC(=O)[C@H](CCC(=O)NCc4cccc(OC)c4)NC3=O)[C@@H](C)O)CS[C@H]2C)NC(=O)[C@H](Cc2c[nH]c3ccccc23)NC1=O [Compound 6]	>128 µg/mL	2 µg/mL	2 µg/mL	1 µg/mL	>128 µg/mL	2 µg/mL	2 µg/mL	32 µg/mL	2 µg/mL	2 µg/mL	1 µg/mL
C=C1NC(=O)[C@H](C(C)C)NC(=O)[C@H](NC(=O)/C(=C/C)NC(=O)[C@@H](N)[C@@H](C)CC)CSC[C@@H](C(=O)N[C@H]2C(=O)N3CCC[C@H]3C(=O)NCC(=O)N[C@H](C(=O)N[C@H](C(=O)N[C@@H]3CSC[C@@H]4NC(=O)CNC(=O)[C@@H](CSC[C@@H]5NC(=O)[C@H](Cc6c[nH]cn6)NC(=O)[C@@H](CSC[C@@H](C(=O)NCCN)NC5=O)NC4=O)NC(=O)CNC(=O)CNC(=O)CNC(=O)[C@H](CCC(=O)NCCN)NC3=O)[C@@H](C)O)CS[C@H]2C)NC(=O)[C@H](Cc2c[nH]c3ccccc23)NC1=O [Compound 7]	>128 µg/mL	4 µg/mL	<0.125 µg/mL	0.50 µg/mL	0.25 µg/mL	1 µg/mL	2 µg/mL	64 µg/mL	1 µg/mL	1 µg/mL	1 µg/mL
C=C1NC(=O)[C@H](C(C)C)NC(=O)[C@H](NC(=O)/C(=C/C)NC(=O)[C@@H](N)[C@@H](C)CC)CSC[C@@H](C(=O)N[C@H]2C(=O)N3CCC[C@H]3C(=O)NCC(=O)N[C@H](C(=O)N[C@H](C(=O)N[C@@H]3CSC[C@@H]4NC(=O)CNC(=O)[C@@H](CSC[C@@H]5NC(=O)[C@H](Cc6c[nH]cn6)NC(=O)[C@@H](CSC[C@@H](C(=O)NCCCCCCCCCCCC)NC5=O)NC4=O)NC(=O)CNC(=O)CNC(=O)CNC(=O)[C@H](CCC(=O)NCCCCCCCCCCCC)NC3=O)[C@@H](C)O)CS[C@H]2C)NC(=O)[C@H](Cc2c[nH]c3ccccc23)NC1=O [Compound 8]	2 µg/mL	1 µg/mL	1 µg/mL	1 µg/mL	1 µg/mL	1 µg/mL	1 µg/mL	0.25 µg/mL	2 µg/mL	2 µg/mL	2 µg/mL
C=C1NC(=O)[C@H](C(C)C)NC(=O)[C@H](NC(=O)/C(=C/C)NC(=O)[C@@H](N)[C@@H](C)CC)CSC[C@@H](C(=O)N[C@H]2C(=O)N3CCC[C@H]3C(=O)NCC(=O)N[C@H](C(=O)N[C@H](C(=O)N[C@@H]3CSC[C@@H]4NC(=O)CNC(=O)[C@@H](CSC[C@@H]5NC(=O)[C@H](Cc6c[nH]cn6)NC(=O)[C@@H](CSC[C@@H](C(=O)Nc6cccc7ccccc67)NC5=O)NC4=O)NC(=O)CNC(=O)CNC(=O)CNC(=O)[C@H](CCC(=O)Nc4cccc5ccccc45)NC3=O)[C@@H](C)O)CS[C@H]2C)NC(=O)[C@H](Cc2c[nH]c3ccccc23)NC1=O [Compound 9]	>128 µg/mL	16 µg/mL	16 µg/mL	32 µg/mL	16 µg/mL	16 µg/mL	16 µg/mL	32 µg/mL	32 µg/mL	8 µg/mL	16 µg/mL
